Test results reported in US8076338B2, “Kinase modulators and methods of use” (Exelixis, Inc., priority 2004, dated 2011).

What was measured:
[1] = target: p70S6K (Homo sapiens, UniProt P23443); assay: Luciferase-coupled chemiluminescence kinase assay (ATP consumption); assay type: biochemical
Summary of the method: (§1)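 Enzyme at 2.5-5 nM was preincubated 30 min at room temperature with compound in Tris pH 7.5, MgCl2, TX-100, DTT, then reacted with ATP for 3 h at ambient temperature. Remaining ATP was quantified by luciferase-luciferin chemiluminescence, with consumption kept at 25-60%; […].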

[2] = target: AktK (Homo sapiens, UniProt P31749); assay: as above; assay type: biochemical; conditions: read-out: AKT-1 IC50
Summary of the method: as §1

p70S6K, sequence (P23443 whole entry): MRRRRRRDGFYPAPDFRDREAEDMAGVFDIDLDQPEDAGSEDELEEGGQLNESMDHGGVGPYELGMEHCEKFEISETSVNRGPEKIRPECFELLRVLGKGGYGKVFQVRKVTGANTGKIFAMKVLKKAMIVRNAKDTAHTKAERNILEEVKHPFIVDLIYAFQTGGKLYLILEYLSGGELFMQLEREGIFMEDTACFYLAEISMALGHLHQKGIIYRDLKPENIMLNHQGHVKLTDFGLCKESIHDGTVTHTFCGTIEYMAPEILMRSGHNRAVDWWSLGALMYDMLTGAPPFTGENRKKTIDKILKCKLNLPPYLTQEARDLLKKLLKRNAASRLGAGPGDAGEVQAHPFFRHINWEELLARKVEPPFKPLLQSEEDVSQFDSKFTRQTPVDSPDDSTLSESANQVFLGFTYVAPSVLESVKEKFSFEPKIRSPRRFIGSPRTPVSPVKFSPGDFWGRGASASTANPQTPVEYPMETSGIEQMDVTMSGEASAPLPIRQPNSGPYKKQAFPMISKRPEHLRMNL
AktK, sequence (P31749 whole entry): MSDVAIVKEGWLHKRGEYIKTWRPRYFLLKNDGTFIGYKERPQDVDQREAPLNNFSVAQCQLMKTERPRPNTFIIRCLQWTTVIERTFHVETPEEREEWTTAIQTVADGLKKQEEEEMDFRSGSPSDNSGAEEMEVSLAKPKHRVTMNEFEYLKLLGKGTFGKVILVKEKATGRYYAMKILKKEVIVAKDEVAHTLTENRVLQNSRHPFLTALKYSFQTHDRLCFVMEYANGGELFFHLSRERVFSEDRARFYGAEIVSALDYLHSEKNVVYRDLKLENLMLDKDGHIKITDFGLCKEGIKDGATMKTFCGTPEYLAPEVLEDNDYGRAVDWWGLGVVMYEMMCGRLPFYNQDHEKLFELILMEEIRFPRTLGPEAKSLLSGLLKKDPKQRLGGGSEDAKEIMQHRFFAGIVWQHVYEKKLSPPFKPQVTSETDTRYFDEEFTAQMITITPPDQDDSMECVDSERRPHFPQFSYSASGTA

Row | Compound | IC50 [1] | IC50 [2]
1 | CCc1n[nH]c2ncnc(N3CCN(c4ccc(OCCN5CCOCC5)c(Cl)c4)CC3)c12 [Entry 345, 4-(4-{3-chloro-4-[(2-morpholin-4-ylethyl)oxy]phe-nyl}piperazin-1-yl)-3-ethyl-1H-pyrazolo[3,4-d]pyrimidine] | 1000 to 10000 nM | ≥ 10 µM
2 | CCc1n[nH]c2ncnc(N3CCN(c4cccc(Cl)c4)C(C(=O)OC)C3)c12 (stereo not shown) [Entry 346, methyl 1-(3-chlorophenyl)-4-(3-ethyl-1H-pyrazolo[3,4-d]pyrimidin-4-yl)piperazine-2-carboxylate] | 1000 to 10000 nM | ≥ 10 µM
3 | CCc1n[nH]c2ncnc(N3CCN(c4cccc(Cl)c4)CC3C(=O)OC)c12 (stereo not shown) [Entry 349, methyl 4-(3-chlorophenyl)-1-(3-ethyl-1H-pyrazolo[3,4-d]pyrimidin-4-yl)piperazine-2-carboxylate] | 1000 to 10000 nM | ≥ 10 µM
4 | CCc1n[nH]c2ncnc(N3CCN(c4ccc(OCCN5CCCCC5)c(Cl)c4)CC3)c12 [Entry 350, 4-(4-{3-chloro-4-[(2-piperidin-1-ylethyl)oxy]phe-nyl}piperazin-1-yl)-3-ethyl-1H-pyrazolo[3,4-d]pyrimidine] | 1000 to 10000 nM | ≥ 10 µM
5 | COc1ccc(-c2n[nH]c3ncnc(N4CCN(c5cc(Cl)ccc5C)CC4)c23)cc1 [Entry 356, 4-[4-(5-chloro-2-methylphenyl)piperazin-1-yl]-3-[4-(methyloxy)phenyl]-1H-pyrazolo[3,4-d]pyrimidine] | 100 to 1000 nM | 1 to 10 µM
6 | Cc1ccc(Cl)cc1N1CCN(c2ncnc3[nH]nc(-c4ccc(F)cc4)c23)CC1 [Entry 357, 4-[4-(5-chloro-2-methylphenyl)piperazin-1-yl]-3-(4-fluorophenyl)-1H-pyrazolo[3,4-d]pyrimidine] | 100 to 1000 nM | 1 to 10 µM
7 | Cc1ccc(Cl)cc1N1CCN(c2ncnc3[nH]nc(-c4ccc(Oc5ccccc5)cc4)c23)CC1 [Entry 358, 4-[4-(5-chloro-2-methylphenyl)piperazin-1-yl]-3-[4-(phenyloxy)phenyl]-1H-pyrazolo[3,4-d]pyrimidine] | 100 to 1000 nM | 1 to 10 µM
8 | CCc1n[nH]c2ncnc(N3CCN(c4cccc(Cl)c4)C(C(=O)NCCN(C)C)C3)c12 (stereo not shown) [Entry 360, 1-(3-chlorophenyl)-N-[2-(dimethylamino)ethyl]-4-(3-ethyl-1H-pyrazolo[3,4-d]pyrimidin-4-yl)piperazine-2-carboxamide] | 1000 to 10000 nM | 1 to 10 µM
9 | CCc1n[nH]c2ncnc(N3CCN(c4cc(Cl)cc(N5CCOCC5)c4C)CC3)c12 [Entry 361, 4-[4-(5-chloro-2-methyl-3-morpholin-4-ylphenyl)piperazin-1-yl]-3-ethyl-1H-pyrazolo[3,4-d]pyrimidine] | 100 to 1000 nM | 1 to 10 µM
10 | COc1ccccc1-c1n[nH]c2ncnc(N3CCN(c4cc(Cl)ccc4C)CC3)c12 [Entry 363, 4-[4-(5-chloro-2-methylphenyl)piperazin-1-yl]-3-[2-(methyloxy)phenyl]-1H-pyrazolo[3,4-d]pyrimidine] | 100 to 1000 nM | 1 to 10 µM
11 | COc1cccc(-c2n[nH]c3ncnc(N4CCN(c5cc(Cl)ccc5C)CC4)c23)c1 [Entry 365, 4-[4-(5-chloro-2-methylphenyl)piperazin-1-yl]-3-[3-(methyloxy)phenyl]-1H-pyrazolo[3,4-d]pyrimidine] | 1000 to 10000 nM | 1 to 10 µM
12 | Cc1ccc(Cl)cc1N1CCN(c2ncnc3[nH]nc(-c4ccc(C#N)cc4)c23)CC1 [Entry 366, 4-{4-[4-(5-chloro-2-methylphenyl)piperazin-1-yl]-1H-pyrazolo[3,4-d]pyrimidin-3-yl}benzonitrile] | 1000 to 10000 nM | 1 to 10 µM
13 | CCc1n[nH]c2ncnc(N3CCN(c4cc(Cl)cc(C(=O)OC)c4OC)CC3)c12 [Entry 368, methyl 5-chloro-3-[4-(3-ethyl-1H-pyrazolo[3,4-d]pyrimidin-4-yl)piperazin-1-yl]-2-(methyloxy)benzoate] | 100 to 1000 nM | 1 to 10 µM
14 | Cc1ccc(Cl)cc1N1CCN(c2ncnc3[nH]nc(-c4ccc(OCCN5CCOCC5)cc4)c23)CC1 [Entry 373, 4-[4-(5-chloro-2-methylphenyl)piperazin-1-yl]-3-{4-[(2-morpholin-4-ylethyl)oxy]phenyl}-1H-pyrazolo[3,4-d]pyrimidine] | 1000 to 10000 nM | 1 to 10 µM
15 | CCc1n[nH]c2ncnc(N3CCN(c4cc(Cl)cc(C(=O)N5CCN(C)CC5)c4OC)CC3)c12 [Entry 375, 4-(4-{5-chloro-2-(methyloxy)-3-[(4-methylpipera-zin-1-yl)carbonyl]phenyl}piperazin-1-yl)-3-ethyl-1H-pyrazolo[3,4-d]pyrimidine] | 100 to 1000 nM | ≥ 10 µM
16 | CCc1n[nH]c2ncnc(N3CCN(c4cc(Cl)cc(CN(C)C)c4OC)CC3)c12 [Entry 377, 1-[5-chloro-3-[4-(3-ethyl-1H-pyrazolo[3,4-d]pyrimidin-4-yl)piperazin-1-yl]-2-(methyloxy)phenyl]-N,N-dimethylmethanamine] | 100 to 1000 nM | ≥ 10 µM
17 | CCc1n[nH]c2ncnc(N3CCN(c4cc(Cl)cc(CNCCN(C)C)c4OC)CC3)c12 [Entry 378, N′-{[5-chloro-3-[4-(3-ethyl-1H-pyrazolo[3,4-d]pyrimidin-4-yl)piperazin-1-yl]-2-(methyloxy)phe-nyl]methyl}-N,N-dimethylethane-1,2-diamine] | 100 to 1000 nM | 1 to 10 µM
18 | Cc1ccc(Cl)cc1N1CCN(c2ncnc3[nH]nc(-c4ccc(OCCCN(C)C)cc4)c23)CC1 [Entry 380, 3-[(4-{4-[4-(5-chloro-2-methylphenyl)piperazin-1-yl]-1H-pyrazolo[3,4-d]pyrimidin-3-yl}phenyl)oxy]-N,N-dimethylpropan-1-amine] | 1000 to 10000 nM | 1 to 10 µM

Now from value to compound:

Row | IC50 [1] | IC50 [2] | Compound
19 | < 100 nM | 1 to 10 µM | Cc1ccc(Cl)cc1N1CCN(c2ncnc3[nH]nc(C(F)(F)F)c23)CC1 [Entry 348, 4-[4-(5-chloro-2-methylphenyl)piperazin-1-yl]-3-(trifluoromethyl)-1H-pyrazolo[3,4-d]pyrimidine]
20 | < 100 nM | 1 to 10 µM | Cc1ccc(Cl)cc1N1CCN(c2ncnc3[nH]nc(C(C)C)c23)CC1 [Entry 351, 4-[4-(5-chloro-2-methylphenyl)piperazin-1-yl]-3-(1-methylethyl)-1H-pyrazolo[3,4-d]pyrimidine]
21 | 100 to 1000 nM | ≥ 10 µM | CCc1n[nH]c2ncnc(N3CCN(c4cccc(Cl)c4)C(C(=O)O)C3)c12 (stereo not shown) [Entry 352, 1-(3-chlorophenyl)-4-(3-ethyl-1H-pyrazolo[3,4-d]pyrimidin-4-yl)piperazine-2-carboxylic acid]
22 | 100 to 1000 nM | 1 to 10 µM | CCc1n[nH]c2ncnc(N3CCN(c4cccc(Cl)c4)C(C(=O)NC)C3)c12 (stereo not shown) [Entry 353, 1-(3-chlorophenyl)-4-(3-ethyl-1H-pyrazolo[3,4-d]pyrimidin-4-yl)-N-methylpiperazine-2-carboxamide]
23 | 100 to 1000 nM | 1 to 10 µM | Cc1ccc(Cl)cc1N1CCN(c2ncnc3[nH]nc(Cc4ccccc4)c23)CC1 [Entry 354, 4-[4-(5-chloro-2-methylphenyl)piperazin-1-yl]-3-(phenylmethyl)-1H-pyrazolo[3,4-d]pyrimidine]
24 | < 100 nM | 1 to 10 µM | Cc1ccc(Cl)cc1N1CCN(c2ncnc3[nH]nc(-c4ccncc4)c23)CC1 [Entry 364, 4-[4-(5-chloro-2-methylphenyl)piperazin-1-yl]-3-pyridin-4-yl-1H-pyrazolo[3,4-d]pyrimidine]
25 | < 100 nM | 1 to 10 µM | CCc1n[nH]c2ncnc(N3CCN(c4cc(Cl)cc(CO)c4OC)CC3)c12 [Entry 367, [5-chloro-3-[4-(3-ethyl-1H-pyrazolo[3,4-d]pyrimidin-4-yl)piperazin-1-yl]-2-(methyloxy)phenyl]methanol]
26 | < 100 nM | 0.1 to 1 µM | Cc1ccc(Cl)cc1N1CCN(c2ncnc3[nH]nc(/C=C/C(=O)O)c23)CC1 [Entry 369, (2E)-3-{4-[4-(5-chloro-2-methylphenyl)piperazin-1-yl]-1H-pyrazolo[3,4-d]pyrimidin-3-yl}prop-2-enoic acid]
27 | < 100 nM | 1 to 10 µM | Cc1ccc(Cl)cc1N1CCN(c2ncnc3[nH]nc(CCC(=O)O)c23)CC1 [Entry 370, 3-{4-[4-(5-chloro-2-methylphenyl)piperazin-1-yl]-1H-pyrazolo[3,4-d]pyrimidin-3-yl}propanoic acid]
28 | < 100 nM | 1 to 10 µM | Cc1ccc(Cl)cc1N1CCN(c2ncnc3[nH]nc(CCCO)c23)CC1 [Entry 371, 3-{4-[4-(5-chloro-2-methylphenyl)piperazin-1-yl]-1H-pyrazolo[3,4-d]pyrimidin-3-yl}propan-1-ol]
29 | < 100 nM | 1 to 10 µM | COC(=O)/C=C/c1n[nH]c2ncnc(N3CCN(c4cc(Cl)ccc4C)CC3)c12 [Entry 372, methyl (2E)-3-{4-[4-(5-chloro-2-methylphenyl)piperazin-1-yl]-1H-pyrazolo[3,4-d]pyrimidin-3-yl}prop-2-enoate]
30 | < 100 nM | 1 to 10 µM | CCc1n[nH]c2ncnc(N3CCN(c4cc(Cl)cc(C(=O)NCCN(C)C)c4OC)CC3)c12 [Entry 374, 5-chloro-N-[2-(dimethylamino)ethyl]-3-[4-(3-ethyl-1H-pyrazolo[3,4-d]pyrimidin-4-yl)piperazin-1-yl]-2-(methyloxy)benzamide]
31 | < 100 nM | 1 to 10 µM | CCc1n[nH]c2ncnc(N3CCN(c4cc(Cl)cc(C(=O)OCCN(C)C)c4OC)CC3)c12 [Entry 376, 2-(dimethylamino)ethyl 5-chloro-3-[4-(3-ethyl-1H-pyrazolo[3,4-d]pyrimidin-4-yl)piperazin-1-yl]-2-(methyloxy)benzoate]
32 | < 100 nM | 1 to 10 µM | CCc1n[nH]c2ncnc(N3CCN(c4cccc(Cl)c4)C(CO)C3)c12 (stereo not shown) [Entry 379, [1-(3-chlorophenyl)-4-(3-ethyl-1H-pyrazolo[3,4-d]pyrimidin-4-yl)piperazin-2-yl]methanol]
